Results on seven molecules are retold here after paper PMC10500001, “Dual hypoxia-responsive supramolecular complex for cancer target therapy” (Nature Communications, 2023).

Several values for one entry are separate records, joined by “and”; a condition that tells them apart may be missing. Identical values can stand only once.

Data set [1] in a line: Competitive fluorescence titration of LCG@SC5A with NMP-BE. As to conditions: HEPES pH 7.4. Type of data set: binding. How it is done: The complexation of SAC5A with reporter dye (RhB) was measured by direct fluorescence titrations. A mixed solution containing known amounts of SAC5A and RhB was sequentially injected into 2.50 mL RhB solution in a quartz cuvette. The dye concentrations in mixed solution and cuvette are the same to keep dye concentration constant in the course of titrations. The fluorescence intensity was measured (λex = 554 nm for RhB) before the first addition and after every addition until a plateau was reached. By fitting the fluorescence intensity (λem = 575 nm for RhB) according to a 1:1 host-guest binding stoichiometry, the association constant was obtained. SC5A (LCG) and SBE-β-CD (NR) used the same method.
The complexation of SAC5A with NMP-BE was measured by competitive fluorescence titrations. […] The fluorescence intensity was measured (λex = 554 nm for RhB) before the first addition and after every addition. The association constant was obtained by fitting fluorescence intensity (λem = 575 nm for RhB) according to a 1:1 competitive binding model. […]
2.8 Fluorescence titrations of SC5A and SBE-β-CD with NMP-BE
Supplementary Figure 14. Competitive fluorescence titration of LCG@SC5A (1.0/1.0 µM) with NMP-BE (up to 80 µM) in HEPES buffer (10 mM, pH = 7.4) at 25 ℃, λex =

Details of data set [2]: method as in earlier work. As to conditions: ref 2 of the supplement; cited from earlier work.
For data set [3], the system named is PANC1 cells. The experiment in a line: Cellular uptake mechanism with endocytosis inhibitors (flow cytometry). Type of data set: cell-based, human. As to conditions: uptake of the SAC5A complex with the inhibitor, 4 replicates. On the procedure:
To examine the cellular uptake mechanism of SAC5A complex, PANC1 cells (3 × 10^5 cells/well) were seeded into the six-well plates and incubated overnight. The cells were pretreated with different endocytosis inhibitors for 1 h: chlorpromazine (CHP, 20 μM, an inhibitor of clathrin-mediated endocytosis), Amiloride (AMI, 500 μM, an inhibitor of macropinocytosis), Genistein (GEN, 200 μM, an inhibitor of caveolae-mediated endocytosis), methyl-β-cyclodextrin (M-β-CD, 5 mM, an inhibitor of lipid rafts-mediated endocytosis), the cells were also pre-incubated under 4 °C for 1 h (energy-dependent endocytosis). […] After that, the cells were collected and washed three times with PBS, and then analyzed by flow cytometry. All experiments were carried out four times. […]
Chlorpromazine (CHP): inhibitor of clathrin-mediated endocytosis; amiloride (AMI): inhibitor of macropinocytosis; Genistein (GEN): inhibitor of caveolae-mediated endocytosis; Methyl-β-cyclodextrin (M-β-CD): lipid rafts-mediated endocytosis; 4 °C: energy-mediated endocytosis. Data are presented as […]
In general terms: Flow cytometry measures light scatter and fluorescence of single cells or particles in a stream.

On the set-up of data set [4]: method as in PMID 17268062. The following applies: cited from earlier work.
For data set [5], the system named is PANC1 cells. The experiment in a line: CLSM fluorescence imaging in living cells under normoxic and hypoxic conditions. The format is cell-based, human. The following applies: 10 μM. How it is done: In this assay, SBE-β-CD was employed to generate CY5-DM@SBE-β-CD as a benchmark. […] The increased fluorescence manifested the hypoxia-selective release performance of the supramolecular complex.
PANC1 cells (1 × 10^5 cells/well) were seeded into the confocal imaging chambers. […] After a 6 h incubation under normoxic conditions, the culture medium was exchanged with fresh medium. Thereafter, the cells were incubated at 37 °C for 18 h under either normoxic or hypoxic conditions, respectively. Subsequently, the cells were fixed in 4% paraformaldehyde (PFA; Biosharp, Hefei, China) for 15 min, washed with PBS buffer three times and then imaged using CLSM. Cell nuclei were counterstained with DAPI (C0060, Solarbio, Beijing, China) for 5 min.

In the next data set the test system is PANC1 tumor-bearing mice. The experiment in a line: In vivo fluorescence imaging. The following applies: single mouse. How it is done:
For animals and tumor model, male BALB/c nude mice at 5–6 weeks were purchased from Vital River Laboratory Animal Technology (Beijing, China). All animal experiments were performed according to the institutional animal care guidelines established by the Institutional Animal Care and Use Committee of Nankai University. To establish the PANC1 tumor-bearing mouse model, 1 × 10^6 PANC1 cells were injected subcutaneously into the right chest of BALB/c nude mice. After the tumor grows to a suitable size, the tumor was divided into small pieces and then subcutaneously incubated into the right chest of other mice. […] The ex vivo fluorescence imaging of major organs at 24 h post injection was imaged by IVIS. Fluorescent images were analyzed using Living Image 3.1 (Caliper Life Sciences).

Turning to `O=S(=O)(O)c1cc2c(O)c(c1)Cc1cc(S(=O)(=O)O)cc(c1O)Cc1cc(S(=O)(=O)O)cc(c1O)Cc1cc(S(=O)(=O)O)cc(c1O)Cc1cc(S(=O)(=O)O)cc(c1O)C2` [SC5A, sulfonated calix[5]arene], in data set [1], the “bonding ability to NMP-BE” value is “almost no bonding ability”. Further, in data set [2], the “1:1 binding affinity between SC5A and LCG” value is 1.48 106 M−1.
On to M-β-CD, for which the “cellular uptake relative to Ctrl (flow cytometry) in presence of endocytosis inhibitor” value in the data set on PANC1 cells [3] is 121.64 and 117.67 and 92.45 and 90.16.
The same measure, in the same setting: the same measure for `N=C(N)NC(=O)c1nc(Cl)c(N)nc1N` [AMI]: 144.29 and 129.79 and 106.33 and 103.16; for `CN(C)CCCN1c2ccccc2Sc2ccc(Cl)cc21` [CHP]: 134.50 and 125.70 and 108.52 and 108.27.
For `O=c1c(-c2ccc(O)cc2)coc2cc(O)cc(O)c12` [GEN], the “cellular uptake relative to Ctrl (flow cytometry) in presence of endocytosis inhibitor” value in the data set with PANC1 cells [3] is 88.04 and 87.28 and 70.24 and 68.53.
On to `C=C1/C=C\C(=O)N(C)CC(=O)NC(C(O)C(N)=O)C(=O)OC(C(C)CCCCCCCCCCCC(C)C)C(C)C(=O)N1` (stereo not shown) [rakicidin A], for which the hypoxia-selective cytotoxicity result in data set [4] was “moderate hypoxia-selective cytotoxicity”.
In the case of `CN1C(=CC=CC=CC2=[N+](C)c3ccccc3C2(C)C)C(C)(C)c2ccccc21` [CY5-DM, 1,1’,3,3,3’,3’-hexamethylindodicarbocyanine], in the data set with PANC1 cells [5], the “difference in fluorescence intensities normoxic versus hypoxic” value is “no significant difference”. The “FL intensity of the tumor in vivo” value with PANC1 tumor-bearing mice (1h post iv injection) is 1.80E+09 and 1.62E+09; in the data set with PANC1 tumor-bearing mice (3h post iv injection) it was 1.74E+09 and 1.60E+09; with PANC1 tumor-bearing mice (6h post iv injection), 1.41E+09 and 1.34E+09 and 1.52E+09; in the data set on PANC1 tumor-bearing mice (12h post iv injection) it was 1.33E+09 and 1.26E+09; in the data set with PANC1 tumor-bearing mice (24h post iv injection), 8.57E+08 and 6.21E+08 and 9.14E+08.
